# Assay results taken from patent US20250282802A1, “P[…] AND METHODS” (priority 2020, published 2025).
# Read-outs that look alike come from different tables or passages of the source.
# Columns and labels:
# Format in all cases: cell-based
# [1] = test system: Aspergillus fumigatus 1163; assay: Fungicidal bioassay (MIC), Aspergillus fumigatus; conditions: for MIC: Aspergillus fumigatus, 1163, 48 hrs growth, CLSI
# Description: Bacteria, plasmids and growth conditions. Bacterial strains, plasmids and primers used in this study are described in Table 3 and 4. General chemical and molecular biology reagents were purchased from Sigma-Aldrich or New England Biolabs. Phosphinothricin (glufosinate) was purchased from GoldBio (CAS #77182-82-2). Standard bacterial growth media were prepared as described (Current Protocols in Molecular Biology 2019, 125:e81, e82, e83). E. coli strains were typically grown at 37° C.; P. ananatis strains were typically grown at 30° C. Phosphonate induction media (PIM) was prepared as follows: 8.37 g/L MOPS, 0.72 g/L Tricine, 0.58 g/L NaCl, 0.51 g/L NH4Cl, 1.6 g/L KOH, 0.1 g/L MgCl2·6H2O, 0.05 g/L K2SO4, 0.2 g/L K2HIPO4 were dissolved H2O and steam sterilized for 20 min at 121° C. After cooling, 1× sterile trace element solution was added (1000× stock: 1.5 g/L nitrilotriacetic acid trisodium salt, 0.8 g/L Fe(NH4)2(SO4)2·7H2O, 0.2 g/L Na2SeO3, 0.1 g/L CoCl2·6H2O, 0.1 g/L MnSO4·H2O, 0.1 g/L Na2MoO4·2H2O, 0.1 g/L Na2WO4·2H2O, 0.1 g/L ZnSO4·7H2O, 0.1 g/L NiCl2·6H2O, 0.01 g/L H3BO3, 0.01 g/L CuSO4·5H2O) followed by addition of 1% (v/v) sterile glycerol and 50 μg/mL sterile kanamycin. For culturing of Candida and Saccharomyces strains, Rosewell Park Memorial Institute 1640 medium (RPMI; Sigma-Aldrich R6504) was used for liquid culturing and Sabouraud Dextrose Agar (SDA; Difco™ 210950) for solid plating unless otherwise specified. For Aspergillus strains, Rosewell Park Memorial Institute 1640 medium (RPMI) was used for liquid culturing and Potato Dextrose Agar (PDA; Difco™ 213400) was used for solid plating unless otherwise specified. YMM medium (6.7 g/L yeast nitrogen base without amino acids [BD Difco™ 291940], 20 g/L glucose, 1× trace element solution) was used as minimal media for fungal strains.
# Fungicidal bioassays. […] Minimum Inhibitory Concentration (MIC) was determined visually by finding the concentration of compound at which there was no visual difference between that concentration and the uninoculated media control.
# [2] = test system: A-549 (human lung carcinoma); assay: Cell culture cytotoxicity screening (Alamar Blue), A-549; conditions: A549, A-549, Alamar Blue, 72 hours
# Description: (§1) FIG. 8. Cytotoxicity of pantaphos across various cancer cell lines. Assays were conducted as described (mBio. 2021 Feb. 2; 12(1):e03402-20), using the Alamar Blue method with 72-hour treatment using Raptinal ([…]) as Dead cell control; n=3. Cell seeding densities: CT26 (colon carcinoma) 2000 c/w; HOS (osteosarcoma) 2500 c/w; ES-2 (ovarian carcinoma), HCT-116 (colorectal carcinoma), A-549 (lung carcinoma), A-172 (glioblastoma), D54 (glioblastoma), U87 (glioblastoma), T98G (glioblastoma), SK-ML-28 (melanoma), MCF-7 (breast cancer), AM38 (glioblastoma) and MDA-MB-231 (breast cancer) 3000 c/w; U118MG (malignant glioma) 4000 c/w; HepG2 (liver cancer) 8000 c/w. c/w=cells per well. […]
# (§2) Cell culture cytotoxicity screening. The compounds were evaluated for their ability to kill cancer cell lines in culture, using HOS (osteosarcoma); ES-2 (ovarian cancer); HCT 116 (colon cancer); A549 (lung carcinoma); and A172 (glioma) cells. Human skin fibroblast cells (HFF-1) were also assessed. […] 72 hours post-treatment, cell viability was assessed using the Alamar Blue method (http://www.bio-rad-antibodies.com/measuring-cytotoxicity-proliferation-spectrophotometry-fluorescence-alamarBlue.html). […] Conversion of Alamar Blue was measured with a plate reader (SpectraMax M3; Molecular Devices) by fluorescence (excitation wavelength: 555 nm; emission wavelength: 585 nm; cutoff 570 nm; autogain). […]
# [3] = test system: D54 (glioblastoma); assay: Cytotoxicity profiling (Alamar Blue), D54; conditions: Homo sapiens, 72-hour treatment
# Description: as §1, §2
# [4] = test system: SK-ML-28 (melanoma); assay: Cytotoxicity profiling (Alamar Blue), SK-ML-28; conditions: Homo sapiens; SK-ML-28, Alamar Blue, 72-hour treatment
# Description: as §1, §2
# [5] = test system: CT26 (colon carcinoma); assay: Cytotoxicity profiling (Alamar Blue), CT26
# Description: FIG. 8. Cytotoxicity of pantaphos across various cancer cell lines. Assays were conducted as described (mBio. 2021 Feb. 2; 12(1):e03402-20), using the Alamar Blue method with 72-hour treatment using Raptinal ([…]) as Dead cell control; n=3. Cell seeding densities: CT26 (colon carcinoma) 2000 c/w; HOS (osteosarcoma) 2500 c/w; ES-2 (ovarian carcinoma), HCT-116 (colorectal carcinoma), A-549 (lung carcinoma), A-172 (glioblastoma), D54 (glioblastoma), U87 (glioblastoma), T98G (glioblastoma), SK-ML-28 (melanoma), MCF-7 (breast cancer), AM38 (glioblastoma) and MDA-MB-231 (breast cancer) 3000 c/w; U118MG (malignant glioma) 4000 c/w; HepG2 (liver cancer) 8000 c/w. c/w=cells per well. IC50 and Emax values shown in Table 6 were extracted from the raw data plotted in FIG. 8.
# Cell culture cytotoxicity screening. The compounds were evaluated for their ability to kill cancer cell lines in culture, using HOS (osteosarcoma); ES-2 (ovarian cancer); HCT 116 (colon cancer); A549 (lung carcinoma); and A172 (glioma) cells. Human skin fibroblast cells (HFF-1) were also assessed. Cells were seeded (3000 cells well^−1 for ES-2, HCT 116, A549 and A172; 4000 cells well^−1 for HFF-1 and 2500 cells well^−1 for HOS) in a 96-well plate and allowed to attach overnight. Cells were treated with pantaphos in water. The concentrations of the tested compounds were 5 nM to 100 μM (1% water final; 100 μl well^−1). Raptinal (50 μM) was used as a dead control. On each plate, five technical replicates per compound were performed. 72 hours post-treatment, cell viability was assessed using the Alamar Blue method (http://www.bio-rad-antibodies.com/measuring-cytotoxicity-proliferation-spectrophotometry-fluorescence-alamarBlue.html). […] Conversion of Alamar Blue was measured with a plate reader (SpectraMax M3; Molecular Devices) by fluorescence (excitation wavelength: 555 nm; emission wavelength: 585 nm; cutoff 570 nm; autogain). Percentage death was determined by normalizing to water-treated cells and Raptinal-treated cells. […]
compound,measurement,setting,value
"O=C(O)/C=C(\C(=O)O)C(O)P(=O)(O)O (stereo not shown) [pantaphos, 2-(hydroxy(phosphono)methyl)maleate]",MIC,"[1]; M9 minimal medium, read-out: MIC, Minimal medium",> 125 µM
same,MIC,"[1]; RPMI 1640 medium, read-out: MIC, Rich medium",> 125 µM
same,"effect on the growth of fungi, in words",[1]; rich or minimal media,no effect on the growth
same,IC50,[2],14.7 ± 0.61 µM
same,Emax,[2]; read-out: Emax = percentage cell death (converted),66%
same,Emax,[3],46 to 58%
same,Emax,[4],47 to 51%
same,"sensitivity of the cell line to the compound, in words",[5]; CT26,sensitive
same,IC50,"[5]; CT26, Alamar Blue, 72-hour treatment (Table 6)",3.38 ± 0.09 µM
same,Emax,"[5]; Mus musculus, CT26, Alamar Blue, 72-hour treatment",81 to 92%
